Results reported in US7504415B2, “Therapeutic agent for glomerular disease” (Kowa Co., Ltd., priority 2001, dated 2009).

Experiments:
Human mensagial cells = test: Mensagial matrix (PIP) production inhibition test, TGF-β1-stimulated, ELISA; assay type: cell-based; conditions: TGF-β1 10 ng/mL stimulation, 72 hours culture, PIP by ELISA, read-out: PIP production inhibitory activity (IC50)
Method: (1) Culture and Storage of Human Mensagial Cells
Human mensagial cells (normal human mensagial cells, CryoNHMC, product of Sanko Junyaku Co., Ltd.) were cultured in MsGM medium (15 mL/flask) by use of two 75-cm^2 flasks (430720, CORNING). The medium was replaced with fresh medium every 2 to 3 days. Subsequently, the culture was scaled up to a 225-cm^2 flask (3000, COSTER) level, and three vials of passage 5 and 27 vials of passage 6 were prepared at a cell count of 5×10^6 cells/Cell Banker 1 mL/vial (430659, CORNING). The thus-cultured cell samples were stored in a container cooled by liquid nitrogen.
(2) Determination of Mansagial Matrix Production Inhibitory Activity
Cryopreserved human mensagial cells of passage 6 were revived and sown in a medium placed in a 75-cm^2 flask. The medium was replaced the next day, and incubation was continued for three more days. The thus-cultured cells were treated with 0.25% trypsin-0.02% EDTA. […] After completion of culturing, the PIP level of each culture liquid was determined through ELISA by use of a PIP determination kit (product of TAKARA). The percent inhibition (%) was calculated in accordance with the following equation, and the PIP production inhibitory activity (IC50 value) was derived from the percent inhibition. […]

[1] = test system: renal failure model (5/6 nephrectomized) rats; test: Renal failure model (5/6 nephrectomized) rats; assay type: in vivo, rat; conditions: 15 mg/kg perorally once a day
Source text: Male Wistar rats (10 weeks old, 300 to 350 g, purchased from Japan SLC Co., Ltd.) were anesthetized with pentobarbital, and the right kidney of each rat was extirpated. Subsequently, the left kidney was exposed. Under a stereoscopic microscope, two of the left renal artery branches (generally, one renal artery is separated into three branches) were ligated and one central branch was left intact, to thereby provide a 5/6 nephrectomized rat. When a renal artery branch is ligated, a portion controlled by the branch falls into ischemia, and such ischemic renal portion can be visually detected. The thus-produced renal failure models were evaluated in terms of increase in blood urea nitrogen level (BUN) one day after the ligation.
The rats were divided into three groups such that the BUN level (one day after ligation) of the groups were equalized, and compound A was administered to each rat of the groups. The groups consisted of a normal rat group (N=5); a 5/6 nephphrectomized and drug-untreated group (control: N=8); and a 5/6 nephrectomized and compound-A-administered group (15 mg/kg: N=8). […] The (total protein)/creatinine ratio (UP/Ucr) in a urine sample and the BUN level were determined on days 7, 14, 21, 28, and 35 after ligation.

[2] = test system: progressive anti-Thy-1 nephritic rat; test: Pharmacological test using progressive anti-Thy-1 nephritic rats; assay type: in vivo; conditions: 20 mg/kg perorally once/day, 10 weeks
Method: (1) Wistar female rats (5 weeks old, purchased from Japan SLC Co., Ltd.) were quarantined and acclimatized for four days, and used for the test. First, the right kidney of each rat was removed through flank incision under anesthesia with pentobarbital. Two weeks after removal of the right kidney, an anti-Thy-1 antibody (anti-mesangial-cell antibody/monoclonal antibody 1-22-3; purchased from Panafarm Laboratories Co., Ltd.) was intravenously administered (500 μg/rat) into the tail vein, whereby progressive anti-Thy-1 nephritis was induced. Immediately thereafter, compound A which had been suspended in an aqueous 0.5% sodium carboxymethyl cellulose solution was perorally administered via a peroral probe to each rat in a forced and continuous manner (20 mg/kg body weight, once/day, 10 weeks). After completion of 10 weeks' administration of compound A, urine was taken from each rat for 18 hours in a metabolic cage (Sugiyama Gen Co., Ltd.), and the total amount of protein excreted into the urine was determined.
(2) After completion of the urine analysis, the left kidney was extirpated from each rat, fixed in formalin, and embedded with paraffin. A thin slice obtained from the thus-treated kidney was stained with hematoxylin and eosin (HE), and observed under a stereoscopic microscope. […] The ratio was evaluated on the basis of the following classification. […]

Slc: Wistar rats = test: Acute toxicity test; assay type: in vivo, rat
Method: Slc: Wistar rats (5 male rats and 5 female rats, 6 weeks old, purchased from Japan SLC Co., Ltd.) were subjected to fasting overnight. After fasting, compound A which had been suspended in an aqueous 0.5% sodium carboxymethyl cellulose solution was perorally administered in a forced manner to each male rat (500 mg/kg) and each female rat (250 mg/kg).

For “monocalcium (+)-bis[(3R, 5S, 6E)-7-[2-cyclopropyl-4-(4-fluorophenyl)-3-quinolyl]-3,5-dihydroxy-6-heptenoate] [compound A]”, the IC50 (Human mensagial cells) was 22.4 µM, the “blood urea nitrogen (BUN) level” value ([1]; after week 4, FIG. 4) was “significant decrease” and the “(total protein)/creatinine ratio (UP/Ucr) in urine” value ([1]; weeks 7 and 8 after administration, vs drug-untreated group, FIG. 3) was “significantly decreases”. For the same substance, the “total amount of protein excreted into urine (18 hours)” value ([2]; FIG. 1) was “significantly lowered”, the “lesions occurring in the malpighian tubes and stroma (tubulointerstitial damage score, HE staining)” value ([2]; FIG. 2) was “significantly inhibited” and the “death during observation period of 14 days” value (Slc: Wistar rats; female rats, 250 mg/kg single peroral dose after overnight fasting) was “no case of death”. For the same substance, the “death during observation period of 14 days” value (Slc: Wistar rats; male rats, 500 mg/kg single peroral dose after overnight fasting) was “no case of death”.
